Target: Bromodomain adjacent to zinc finger domain protein 2A (Homo sapiens) (UniProt Q9UIF9)
Assay: Inhibition of His6-tagged BAZ2A (unknown origin) (1796 to 1899 residues) assessed as residual activity at 100 uM using H3K(Ac)14 substrate by AlphaScreen assay relative to control

Chain of Bromodomain adjacent to zinc finger domain protein 2A (Homo sapiens) (Q9UIF9 whole entry, the tested form may be a part): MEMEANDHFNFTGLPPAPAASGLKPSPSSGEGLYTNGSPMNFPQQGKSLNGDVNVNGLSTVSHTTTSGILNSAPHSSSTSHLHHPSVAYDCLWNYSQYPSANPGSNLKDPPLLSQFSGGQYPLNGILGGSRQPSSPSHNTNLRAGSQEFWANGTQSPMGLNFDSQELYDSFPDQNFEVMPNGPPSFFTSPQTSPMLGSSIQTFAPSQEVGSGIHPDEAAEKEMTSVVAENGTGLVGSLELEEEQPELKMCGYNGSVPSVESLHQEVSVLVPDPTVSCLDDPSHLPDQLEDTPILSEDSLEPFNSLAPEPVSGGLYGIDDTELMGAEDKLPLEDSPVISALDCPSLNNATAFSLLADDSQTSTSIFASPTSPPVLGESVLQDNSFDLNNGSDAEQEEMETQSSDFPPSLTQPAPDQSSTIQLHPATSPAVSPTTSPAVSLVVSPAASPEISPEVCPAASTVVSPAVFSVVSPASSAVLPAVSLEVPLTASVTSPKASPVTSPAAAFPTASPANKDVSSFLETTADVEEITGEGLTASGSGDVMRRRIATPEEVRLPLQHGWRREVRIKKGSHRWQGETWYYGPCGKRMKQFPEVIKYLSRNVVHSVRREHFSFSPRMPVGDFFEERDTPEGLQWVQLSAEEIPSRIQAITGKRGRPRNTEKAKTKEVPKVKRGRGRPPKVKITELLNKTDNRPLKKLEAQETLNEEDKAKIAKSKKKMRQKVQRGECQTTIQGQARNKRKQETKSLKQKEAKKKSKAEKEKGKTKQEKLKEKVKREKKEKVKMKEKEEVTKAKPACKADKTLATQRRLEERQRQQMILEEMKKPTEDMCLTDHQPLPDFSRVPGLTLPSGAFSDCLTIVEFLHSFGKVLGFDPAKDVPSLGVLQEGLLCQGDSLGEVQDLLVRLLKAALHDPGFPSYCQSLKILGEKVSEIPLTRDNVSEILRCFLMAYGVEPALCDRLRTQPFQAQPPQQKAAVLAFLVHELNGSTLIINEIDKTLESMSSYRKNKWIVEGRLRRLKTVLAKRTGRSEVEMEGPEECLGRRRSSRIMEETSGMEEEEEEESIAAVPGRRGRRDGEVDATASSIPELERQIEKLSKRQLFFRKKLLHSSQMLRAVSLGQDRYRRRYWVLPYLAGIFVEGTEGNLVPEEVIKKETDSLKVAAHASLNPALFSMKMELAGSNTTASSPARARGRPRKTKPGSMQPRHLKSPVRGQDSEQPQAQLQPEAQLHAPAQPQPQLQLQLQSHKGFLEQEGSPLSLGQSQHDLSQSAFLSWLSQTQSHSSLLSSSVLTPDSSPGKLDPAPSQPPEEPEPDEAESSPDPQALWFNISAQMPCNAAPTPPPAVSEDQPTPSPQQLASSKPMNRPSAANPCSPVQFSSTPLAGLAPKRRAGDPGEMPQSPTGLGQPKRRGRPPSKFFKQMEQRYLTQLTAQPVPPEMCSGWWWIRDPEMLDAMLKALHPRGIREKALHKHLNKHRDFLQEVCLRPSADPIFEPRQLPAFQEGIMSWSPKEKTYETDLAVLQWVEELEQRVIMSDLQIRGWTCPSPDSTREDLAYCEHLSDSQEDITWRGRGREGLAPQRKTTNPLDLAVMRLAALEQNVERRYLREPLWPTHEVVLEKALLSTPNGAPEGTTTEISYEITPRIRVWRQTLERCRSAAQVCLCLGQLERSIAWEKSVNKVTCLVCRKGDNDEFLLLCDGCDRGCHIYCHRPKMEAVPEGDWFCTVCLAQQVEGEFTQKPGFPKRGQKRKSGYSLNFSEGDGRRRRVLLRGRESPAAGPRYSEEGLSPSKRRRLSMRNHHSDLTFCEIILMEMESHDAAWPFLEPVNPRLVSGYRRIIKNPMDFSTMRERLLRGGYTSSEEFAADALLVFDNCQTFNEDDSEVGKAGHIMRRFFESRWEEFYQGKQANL

Activity: > 50%
Compound: CC(=O)c1c(C)[nH]c(-c2csc(N=C(N)N)n2)c1CCC(C)C
